Biological target: human Nav1.7 (Homo sapiens (Human), UniProt Q15858)
Assay: FLIPR or FLIPR TETRA sodium dye assay with KCl and test article pre-incubation
Format: cell-based
Conditions: sodium channel blocking activity, recombinant HEK293 cells, CoroNa Green dye, veratridine + scorpion venom; read-out: Nav1.7 IC50 (μM) ± SEM

Chain of human Nav1.7 (Q15858 with tags, fused parts or gaps limits assumed): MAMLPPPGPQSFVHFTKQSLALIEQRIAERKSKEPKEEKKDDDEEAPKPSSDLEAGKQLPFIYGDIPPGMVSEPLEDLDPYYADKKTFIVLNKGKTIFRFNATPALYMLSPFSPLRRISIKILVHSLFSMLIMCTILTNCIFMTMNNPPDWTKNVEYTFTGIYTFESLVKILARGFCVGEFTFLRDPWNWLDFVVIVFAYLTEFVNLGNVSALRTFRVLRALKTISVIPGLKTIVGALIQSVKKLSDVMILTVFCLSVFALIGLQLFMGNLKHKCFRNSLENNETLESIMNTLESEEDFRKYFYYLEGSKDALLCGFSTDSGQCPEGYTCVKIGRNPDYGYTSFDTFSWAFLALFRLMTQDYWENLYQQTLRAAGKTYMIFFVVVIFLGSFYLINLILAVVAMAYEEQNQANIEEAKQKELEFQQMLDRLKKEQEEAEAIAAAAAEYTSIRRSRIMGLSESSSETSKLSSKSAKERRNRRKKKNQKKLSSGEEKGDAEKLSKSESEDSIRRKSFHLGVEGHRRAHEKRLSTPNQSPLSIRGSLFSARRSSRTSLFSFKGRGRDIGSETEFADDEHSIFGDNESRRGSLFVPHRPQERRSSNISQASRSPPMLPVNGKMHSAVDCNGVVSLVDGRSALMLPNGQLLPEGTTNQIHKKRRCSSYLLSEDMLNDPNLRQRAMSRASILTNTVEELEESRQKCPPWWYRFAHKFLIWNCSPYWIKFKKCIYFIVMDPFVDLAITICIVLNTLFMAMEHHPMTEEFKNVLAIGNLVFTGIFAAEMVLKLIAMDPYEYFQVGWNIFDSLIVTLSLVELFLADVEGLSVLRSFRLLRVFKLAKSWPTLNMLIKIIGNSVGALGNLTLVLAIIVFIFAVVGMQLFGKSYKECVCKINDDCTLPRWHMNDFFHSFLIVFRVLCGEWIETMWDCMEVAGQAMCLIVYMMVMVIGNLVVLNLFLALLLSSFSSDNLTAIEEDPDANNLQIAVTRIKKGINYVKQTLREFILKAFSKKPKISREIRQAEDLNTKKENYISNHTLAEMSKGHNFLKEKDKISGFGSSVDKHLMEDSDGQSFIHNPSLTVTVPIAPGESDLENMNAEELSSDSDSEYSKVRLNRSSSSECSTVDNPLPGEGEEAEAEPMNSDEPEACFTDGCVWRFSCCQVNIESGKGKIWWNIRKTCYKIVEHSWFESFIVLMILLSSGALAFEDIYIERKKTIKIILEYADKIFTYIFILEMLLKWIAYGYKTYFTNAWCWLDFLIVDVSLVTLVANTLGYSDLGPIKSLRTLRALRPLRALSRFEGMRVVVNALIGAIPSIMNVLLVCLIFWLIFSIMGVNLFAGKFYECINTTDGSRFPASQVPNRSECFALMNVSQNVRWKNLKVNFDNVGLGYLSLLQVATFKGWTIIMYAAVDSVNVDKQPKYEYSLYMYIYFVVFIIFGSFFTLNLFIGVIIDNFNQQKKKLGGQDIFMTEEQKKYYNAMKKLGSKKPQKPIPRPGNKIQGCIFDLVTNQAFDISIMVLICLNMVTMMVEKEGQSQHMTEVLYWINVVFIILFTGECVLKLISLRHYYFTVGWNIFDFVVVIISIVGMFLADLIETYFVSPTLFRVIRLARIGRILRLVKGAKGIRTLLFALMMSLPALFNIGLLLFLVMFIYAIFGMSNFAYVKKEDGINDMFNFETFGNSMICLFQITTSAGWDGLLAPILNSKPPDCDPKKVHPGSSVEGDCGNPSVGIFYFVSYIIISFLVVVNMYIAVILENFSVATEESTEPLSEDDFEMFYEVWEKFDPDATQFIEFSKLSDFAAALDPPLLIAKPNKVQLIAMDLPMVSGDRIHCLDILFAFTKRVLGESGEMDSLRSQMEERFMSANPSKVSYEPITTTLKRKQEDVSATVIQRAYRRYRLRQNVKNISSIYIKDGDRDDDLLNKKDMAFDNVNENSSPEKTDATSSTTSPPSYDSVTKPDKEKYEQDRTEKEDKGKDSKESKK

`Cc1cc(-c2nnn(CC(N)=O)n2)cc(-c2ccc(Oc3ccc(F)cc3)cc2)n1` [compound 108, 2-(5-(2-(4-(4-fluorophenoxy)phenyl)-6-methylpyridin-4-yl)-2H-tetrazol-2-yl) acetamide] showed an IC50 of 0.13 ± 0.01 µM.
